According to ChEMBL document CHEMBL4808195, “Discovery of heterocyclic substituted dihydropyrazoles as potent anticancer agents” (Bioorg Med Chem Lett, 2021):

Legend:
Type in all cases: functional
NCI-H1975 = test: Anticancer activity against human NCI-H1975 cells assessed as inhibition of cell growth at 10 uM measured by SRB method
HCC1806 = test: Anticancer activity against human HCC1806 cells assessed as inhibition of cell growth at 10 uM measured by SRB method
MDA-MB-231 = test: Anticancer activity against human MDA-MB-231 cells assessed as inhibition of cell growth at 10 uM measured by SRB method

| SMILES | inhibition at 10 µM (NCI-H1975) | inhibition at 10 µM (HCC1806) | inhibition at 10 µM (MDA-MB-231) |
| --- | --- | --- | --- |
| COC(=O)CC(=O)N1N=C(c2ccc(-n3cncn3)cc2)CC1c1ccc(N(C)C)cc1 (stereo not given) | 1.5% | -7.8% | 6.8% |
| CN1CCN(c2ccc(C3=NN(S(C)(=O)=O)C(c4ccc(N(C)C)cc4)C3)cc2)CC1 (stereo not given) | -1.3% | -18.5% | 0.6% |
| Cc1ccc(S(=O)(=O)N2N=C(c3ccc(-n4cncn4)cc3)CC2c2ccc(N(C)C)cc2)cc1 (stereo not given) | 20% | 27.7% | 20.7% |
| CN(C)c1ccc(C2CC(c3ccc(-n4ccnc4)cc3)=NN2C(=O)c2cc(Cl)cc(Cl)c2)cc1 (stereo not given) | 58.7% | 44.5% | 48.8% |
| CN(C)c1ccc(C2CC(c3ccc(-n4cncn4)cc3)=NN2S(=O)(=O)c2ccc(C(F)(F)F)cc2)cc1 (stereo not given) | 5.5% | 37% | 15.3% |
| CN(C)c1ccc(C2CC(c3ccc(-n4cncn4)cc3)=NN2)cc1 (stereo not given) | -3.3% | 6.8% | 7% |
| CN(C)c1ccc(C2CC(c3ccc(-n4cncn4)cc3)=NN2S(=O)(=O)c2ccc(C#N)cc2)cc1 (stereo not given) | 22.6% | 35.1% | 32.8% |
| CN(C)c1ccc(C2CC(c3ccc(-n4ccnc4)cc3)=NN2)cc1 (stereo not given) | 0.1% | -20.9% | 7.6% |
| CN(C)c1ccc(C2CC(c3ccc(-n4cncn4)cc3)=NN2S(=O)(=O)c2ccc(Br)cc2)cc1 (stereo not given) | -0.6% | 26.3% | 10.4% |
| CN(C)c1ccc(C2CC(c3ccc(-n4ccnc4)cc3)=NN2S(C)(=O)=O)cc1 (stereo not given) | -3.8% | 11.3% | 12% |
| Cc1ccc(S(=O)(=O)N2N=C(c3ccc(N4CCN(C)CC4)cc3)CC2c2ccc(N(C)C)cc2)cc1 (stereo not given) | 38.1% | 32.2% | 10.7% |
| COC(=O)CC(=O)N1N=C(c2ccc(N3CCN(C)CC3)cc2)CC1c1ccc(N(C)C)cc1 (stereo not given) | -2.2% | -8.3% | -0.4% |
| CN(C)c1ccc(C2CC(c3ccc(-n4cncn4)cc3)=NN2C(=O)c2ccc(F)cc2)cc1 (stereo not given) | -1.1% | 15.6% | 12.5% |
| CN1CCN(c2ccc(C3=NN(C(=O)c4ccc(F)cc4)C(c4ccc(N(C)C)cc4)C3)cc2)CC1 (stereo not given) | 32.2% | 31.8% | 3.5% |
| CN(C)c1ccc(C2CC(c3ccc(-n4cncn4)cc3)=NN2C(=O)CCCl)cc1 (stereo not given) | -0.7% | -3.4% | 3.7% |
| Cc1ccc(S(=O)(=O)N2N=C(c3ccc(-n4ccnc4)cc3)CC2c2ccc(N(C)C)cc2)cc1 (stereo not given) | 50.5% | 66% | 50.8% |
| CN(C)c1ccc(C2CC(c3ccc(-n4cncn4)cc3)=NN2S(C)(=O)=O)cc1 (stereo not given) | -3.1% | 10.8% | 7.8% |
| CN(C)c1ccc(C2CC(c3ccc(-n4cncn4)cc3)=NN2S(=O)(=O)c2ccc(F)cc2)cc1 (stereo not given) | -0.5% | 24.1% | 12.1% |
| CN(C)c1ccc(C2CC(c3ccc(-n4cncn4)cc3)=NN2C(=O)c2cc(Cl)cc(Cl)c2)cc1 (stereo not given) | 8.4% | 5.3% | 9.4% |
| CN(C)c1ccc(C2CC(c3ccc(-n4ccnc4)cc3)=NN2C(=O)CCCl)cc1 (stereo not given) | -2.5% | -5.2% | 2.1% |

| SMILES | inhibition at 10 µM (NCI-H1975) | inhibition at 10 µM (HCC1806) | inhibition at 10 µM (MDA-MB-231) |
| --- | --- | --- | --- |
| CN1CCN(c2ccc(C3=NN(S(=O)(=O)C4CC4)C(c4ccc(N(C)C)cc4)C3)cc2)CC1 (stereo not given) | 0.2% | 4.7% | 3.7% |
| CN(C)c1ccc(C2CC(c3ccc(-n4ccnc4)cc3)=NN2S(=O)(=O)c2ccc(C#N)cc2)cc1 (stereo not given) | 0.7% | 4.7% | 7.1% |
| Cc1ccc(C(=O)N2N=C(c3ccc(N4CCN(C)CC4)cc3)CC2c2ccc(N(C)C)cc2)cc1 (stereo not given) | -0.4% | -2.5% | -0.7% |
| CN(C)c1ccc(C2CC(c3ccc(-n4ccnc4)cc3)=NN2C(=O)Cc2ccccc2)cc1 (stereo not given) | -5.5% | 2% | 7.2% |
| CN(C)c1ccc(C2CC(c3ccc(-n4ccnc4)cc3)=NN2C(=O)c2ccc(C(F)(F)F)cc2)cc1 (stereo not given) | 15% | 28% | 17.9% |
| CN(C)c1ccc(C2CC(c3ccc(-n4cncn4)cc3)=NN2C(=O)c2ccc(C(F)(F)F)cc2)cc1 (stereo not given) | 11.5% | 7% | 16.7% |
| CN1CCN(c2ccc(C3=NN(C(=O)Cc4ccccc4)C(c4ccc(N(C)C)cc4)C3)cc2)CC1 (stereo not given) | -2.8% | 1% | 1.9% |
| CC(=O)N1N=C(c2ccc(N3CCN(C)CC3)cc2)CC1c1ccc(N(C)C)cc1 (stereo not given) | -1.9% | -0.8% | -1% |
| CC(=O)N1N=C(c2ccc(-n3cncn3)cc2)CC1c1ccc(N(C)C)cc1 (stereo not given) | -0.3% | 11% | 7.4% |
| C=C(C)C(=O)N1N=C(c2ccc(-n3ccnc3)cc2)CC1c1ccc(N(C)C)cc1 (stereo not given) | -3.7% | 1.6% | 4.3% |
| CN1CCN(c2ccc(C3=NN(S(=O)(=O)c4ccc(OC(F)(F)F)cc4)C(c4ccc(N(C)C)cc4)C3)cc2)CC1 (stereo not given) | 26.5% | 70.8% | 10.6% |
| CN(C)c1ccc(C2CC(c3ccc(-n4cncn4)cc3)=NN2C(=O)Cc2ccccc2)cc1 (stereo not given) | -4% | -6.9% | 2.9% |
| CC(=O)N1N=C(c2ccc(-n3ccnc3)cc2)CC1c1ccc(N(C)C)cc1 (stereo not given) | -2.1% | -9.7% | 5% |
| CN1CCN(c2ccc(C3=NN(S(=O)(=O)c4ccc(C(F)(F)F)cc4)C(c4ccc(N(C)C)cc4)C3)cc2)CC1 (stereo not given) | 18.9% | 27% | 12.1% |
| CN1CCN(c2ccc(C3=NN(C(=O)CCCl)C(c4ccc(N(C)C)cc4)C3)cc2)CC1 (stereo not given) | -0.2% | 1.7% | 2.4% |
| CN(C)c1ccc(C2CC(c3ccc(-n4cncn4)cc3)=NN2S(=O)(=O)c2ccc(OC(F)(F)F)cc2)cc1 (stereo not given) | 11.1% | 25.2% | 18.5% |
| COC(=O)CC(=O)N1N=C(c2ccc(-n3ccnc3)cc2)CC1c1ccc(N(C)C)cc1 (stereo not given) | -0.1% | 2.1% | 2.3% |
| CN(C)c1ccc(C2CC(c3ccc(-n4ccnc4)cc3)=NN2C(=O)c2ccc(F)cc2)cc1 (stereo not given) | -3.5% | 7.1% | 9.4% |
| CN1CCN(c2ccc(C3=NNC(c4ccc(N(C)C)cc4)C3)cc2)CC1 (stereo not given) | 2.4% | 31.2% | 11.4% |
| CN(C)c1ccc(C2CC(c3ccc(-n4cncn4)cc3)=NN2C(=O)/C=C/c2ccccc2)cc1 (stereo not given) | -2.3% | -3.7% | 8.5% |
